These are literature values, as cited in patent US20080160086A1, “Delivery Systems For Calcium” (Scepter Holdings, Inc., priority 2004, published 2008).

The conditions of this data set: in humans; U.S. Pat. No. 6,582,722.

As to “calcium picolinate [calcium picolinate chelate]”, the bioavailability entry is listed as “high bioavailability”.
